Measurements published in ChEMBL document CHEMBL4513141, “CO-ADD screening of NIH (USA) - Clinical Collection” (2021).
Values after ≈ are worked out from the molar mass of the structure shown. Counter-ions that a name gives are not always drawn.

Assays:
HEK293 = assay: cells; type: functional, Homo sapiens, ATCC CRL1573; conditions: ASSAY_TEST Inhibition of Cell Viability, detection method Resazurin, Fluorescence (ex560/em590), MEDIA DMEM with 10% FBS, plate type 384well, TC, CORNING #3712, time 18 hr
Escherichia coli [1] = assay: microbe, parasite or virus in culture; conditions: ATCC 25922, 18 h, ASSAY_TEST Inhibition of Bacterial Growth, detection method Absorption (OD600), MEDIA CAMHB, plate type 384well, NBS, CORNING #3640
Description: (§1) Antibacterial activity against Escherichia coli ATCC 25922 (CO-ADD:GN_001); MIC in CAMBH media using NBS plates, by OD(600)

Klebsiella pneumoniae [2] = assay: microbe, parasite or virus in culture; conditions: ATCC 700603, 18 h, ASSAY_TEST Inhibition of Bacterial Growth, detection method Absorption (OD600), MEDIA CAMHB, plate type 384well, NBS, CORNING #3640
Description: (§2) Antibacterial activity against Klebsiella pneumoniae MDR ATCC 70063 (CO-ADD:GN_003); MIC in CAMBH media using NBS plates, by OD(600)

Acinetobacter baumannii [3] = conditions: ASSAY_TEST Inhibition of Bacterial Growth; detection method Absorption (OD600); MEDIA CAMHB; plate type 384well; NBS; CORNING #3640; time 18 hr
Description: (§3) Antibacterial activity against Acinetobacter baumannii ATCC 19606 (CO-ADD:GN_034); MIC in CAMBH media using NBS plates, by OD600

Pseudomonas aeruginosa [4] = conditions: ASSAY_TEST Inhibition of Bacterial Growth; detection method Absorption (OD600); MEDIA CAMHB; plate type 384well; NBS; CORNING #3640; time 18 hr
Description: (§4) Antibacterial activity against Pseudomonas aeruginosa ATCC 27853 (CO-ADD:GN_042); MIC in CAMBH media using NBS plates, by OD(600)

Staphylococcus aureus [5] = conditions: ASSAY_TEST Inhibition of Bacterial Growth; detection method Absorption (OD600); MEDIA CAMHB; plate type 384well; NBS; CORNING #3640; time 18 hr
Description: (§5) Antibacterial activity against Staphylococcus aureus MRSA ATCC 43300 (CO-ADD:GP_020); MIC in CAMBH media, using NBS plates, by OD(600)

Candida albicans [6] = assay: microbe, parasite or virus in culture; conditions: ATCC 90028, ASSAY_TEST Inhibition of Fungal Growth, detection method Absorption (OD530), plate type 384well, NBS, CORNING #3640
Description: (§6) Antifungal activity against Candida albicans ATCC 90028 (CO-ADD:FG_001); MIC in YNB media using NBS plates, by OD630

Candida albicans [7] = conditions: ASSAY_TEST Inhibition of Fungal Growth; detection method Absorption (OD530); plate type 384well; NBS; CORNING #3640
Description: as §6

Klebsiella pneumoniae [8] = conditions: ASSAY_TEST Inhibition of Bacterial Growth; detection method Absorption (OD600); MEDIA CAMHB; plate type 384well; NBS; CORNING #3640; time 18 hr
Description: as §2

Escherichia coli [9] = conditions: ASSAY_TEST Inhibition of Bacterial Growth; detection method Absorption (OD600); MEDIA CAMHB; plate type 384well; NBS; CORNING #3640; time 18 hr
Description: as §1

Acinetobacter baumannii [10] = assay: microbe, parasite or virus in culture; conditions: ATCC 19606, 18 h, ASSAY_TEST Inhibition of Bacterial Growth, detection method Absorption (OD600), MEDIA CAMHB, plate type 384well, NBS, CORNING #3640
Description: as §3

Staphylococcus aureus [11] = assay: microbe, parasite or virus in culture; conditions: ATCC 43300, 18 h, ASSAY_TEST Inhibition of Bacterial Growth, detection method Absorption (OD600), MEDIA CAMHB, plate type 384well, NBS, CORNING #3640
Description: as §5

Pseudomonas aeruginosa [12] = assay: microbe, parasite or virus in culture; conditions: ATCC 27853, 18 h, ASSAY_TEST Inhibition of Bacterial Growth, detection method Absorption (OD600), MEDIA CAMHB, plate type 384well, NBS, CORNING #3640
Description: as §4

[13] = Homo sapiens, ATCC CRL1573, HEK293

Description for Cryptococcus neoformans: Antifungal activity against Cryptococcus neoformans H99 ATCC 208821 (CO-ADD:FG_002); MIC in YNB media using NBS plates, by Resazurin OD(600-570)

C[C@H]1COc2c(N3CCN(C)CC3)c(F)cc3c(=O)c(C(=O)O)cn1c23.C[C@H]1COc2c(N3CCN(C)CC3)c(F)cc3c(=O)c(C(=O)O)cn1c23.O [LEVOFLOXACIN]
CC50 (HEK293; [13]): > 10 µM | MIC (Escherichia coli [1]): ≤ 0.0781 µM | MIC (Klebsiella pneumoniae [2]): 2.5 µM | MIC (Cryptococcus neoformans): > 10 µM | MIC (Acinetobacter baumannii [3]): 2.5 µM | MIC (Pseudomonas aeruginosa [4]): 0.625 µM | MIC (Staphylococcus aureus [5]): 0.625 µM | MIC (Candida albicans [6]): > 10 µM

COc1cccc2c1C(=O)c1c(O)c3c(c(O)c1C2=O)C[C@@](O)(C(C)=O)C[C@@H]3OC1CC(N)C(O)C(C)O1.Cl (stereo partly drawn)
MIC (Candida albicans [7]): >10 µM | CC50 (HEK293): 0.148 µM | MIC (Klebsiella pneumoniae [8]): >10 µM | MIC (Escherichia coli [9]): >10 µM | MIC (Cryptococcus neoformans): > 10 µM | MIC (Acinetobacter baumannii [3]): >10 µM | MIC (Pseudomonas aeruginosa [4]): >10 µM | MIC (Staphylococcus aureus [5]): 5 µM

NC1CCN(c2nc3c(cc2F)c(=O)c(C(=O)O)cn3-c2ccc(F)cc2F)C1 (stereo not drawn) [TOSUFLOXACIN TOSYLATE]
CC50 (HEK293; [13]): > 10 µM | MIC (Escherichia coli [1]): ≤ 0.0781 µM | MIC (Acinetobacter baumannii [10]): 0.625 µM | MIC (Staphylococcus aureus [11]): ≤ 0.0781 µM | MIC (Klebsiella pneumoniae [2]): 1.25 µM | MIC (Cryptococcus neoformans): > 10 µM | MIC (Pseudomonas aeruginosa [12]): 0.312 µM | MIC (Candida albicans [6]): > 10 µM

O=c1[nH]cnc2c1ncn2[C@H]1CC[C@@H](CO)O1 [DIDANOSINE]
CC50 (HEK293; [13]): > 10 µM | MIC (Escherichia coli [1]): > 10 µM | MIC (Acinetobacter baumannii [10]): > 10 µM | MIC (Staphylococcus aureus [11]): > 10 µM | MIC (Klebsiella pneumoniae [2]): > 10 µM | MIC (Cryptococcus neoformans): > 10 µM | MIC (Pseudomonas aeruginosa [12]): > 10 µM | MIC (Candida albicans [6]): > 10 µM

COC1=C(OC)C(=O)C(CCCCCCCCCCO)=C(C)C1=O [IDEBENONE]
CC50 (HEK293; [13]): > 10 µM | MIC (Escherichia coli [1]): > 10 µM | MIC (Acinetobacter baumannii [10]): > 10 µM | MIC (Staphylococcus aureus [11]): > 10 µM | MIC (Klebsiella pneumoniae [2]): > 10 µM | MIC (Cryptococcus neoformans): > 10 µM | MIC (Pseudomonas aeruginosa [12]): > 10 µM | MIC (Candida albicans [6]): > 10 µM

O=C(O)C[C@H](O)C[C@H](O)/C=C/c1c(C2CC2)nc2ccccc2c1-c1ccc(F)cc1 [PITAVASTATIN CALCIUM]
CC50 (HEK293; [13]): > 10 µM | MIC (Escherichia coli [1]): > 10 µM | MIC (Acinetobacter baumannii [10]): > 10 µM | MIC (Staphylococcus aureus [11]): > 10 µM | MIC (Klebsiella pneumoniae [2]): > 10 µM | MIC (Cryptococcus neoformans): 10 µM | MIC (Pseudomonas aeruginosa [12]): > 10 µM | MIC (Candida albicans [6]): 2.5 µM

c1ccc(-c2ccc(C(c3ccccc3)n3ccnc3)cc2)cc1 (stereo not drawn) [BIFONAZOLE]
CC50 (HEK293; [13]): > 10 µM | MIC (Escherichia coli [1]): > 10 µM | MIC (Acinetobacter baumannii [10]): > 10 µM | MIC (Staphylococcus aureus [11]): > 10 µM | MIC (Klebsiella pneumoniae [2]): > 10 µM | MIC (Cryptococcus neoformans): 10 µM (≈ 3.1 µg/mL) | MIC (Pseudomonas aeruginosa [12]): > 10 µM | MIC (Candida albicans [6]): > 10 µM

Oc1cc(Cl)ccc1Oc1ccc(Cl)cc1Cl [TRICLOSAN]
CC50 (HEK293; [13]): > 10 µM | MIC (Escherichia coli [1]): > 10 µM | MIC (Acinetobacter baumannii [10]): > 10 µM | MIC (Staphylococcus aureus [11]): 2.5 µM (≈ 0.724 µg/mL) | MIC (Klebsiella pneumoniae [2]): > 10 µM | MIC (Cryptococcus neoformans): > 10 µM | MIC (Pseudomonas aeruginosa [12]): > 10 µM | MIC (Candida albicans [6]): > 10 µM

CO[C@@]1(NC(=O)Cc2cccs2)C(=O)N2C(C(=O)O)=C(COC(N)=O)CS[C@@H]21 [CEFOXITIN SODIUM]
CC50 (HEK293; [13]): > 10 µM | MIC (Escherichia coli [1]): 10 µM | MIC (Acinetobacter baumannii [10]): > 10 µM | MIC (Staphylococcus aureus [11]): > 10 µM | MIC (Klebsiella pneumoniae [2]): > 10 µM | MIC (Cryptococcus neoformans): > 10 µM | MIC (Pseudomonas aeruginosa [12]): > 10 µM | MIC (Candida albicans [6]): > 10 µM

Clc1ccccc1C(c1ccccc1)(c1ccccc1)n1ccnc1 [CLOTRIMAZOLE]
CC50 (HEK293; [13]): > 10 µM | MIC (Escherichia coli [1]): > 10 µM | MIC (Acinetobacter baumannii [10]): > 10 µM | MIC (Staphylococcus aureus [11]): > 10 µM | MIC (Klebsiella pneumoniae [2]): > 10 µM | MIC (Cryptococcus neoformans): 1.25 µM (≈ 0.431 µg/mL) | MIC (Pseudomonas aeruginosa [12]): > 10 µM | MIC (Candida albicans [6]): 0.156 µM (≈ 0.0539 µg/mL)

CCCCCCNC(=O)n1cc(F)c(=O)[nH]c1=O [CARMOFUR]
CC50 (HEK293; [13]): > 10 µM | MIC (Escherichia coli [1]): > 10 µM | MIC (Acinetobacter baumannii [10]): > 10 µM | MIC (Staphylococcus aureus [11]): 2.5 µM (≈ 0.643 µg/mL) | MIC (Klebsiella pneumoniae [2]): > 10 µM | MIC (Cryptococcus neoformans): 5 µM (≈ 1.29 µg/mL) | MIC (Pseudomonas aeruginosa [12]): > 10 µM | MIC (Candida albicans [6]): > 10 µM
